Reference: patent US6710168B1, “Glycopeptide antibiotics, combinatorial libraries of glycopeptide antibiotics and methods of producing same” (The Trustees of the University of Princeton, priority 1999, dated 2004)
Values after ≈ are worked out from the molar mass of the structure shown.

Key:
Format in all cases: cell-based
[1] = tested on: gentamicin, streptmycin, vancomycin resistant Enterococcus faecalis (ATCC 51299); assay: microbe, parasite or virus in culture; conditions: Enterococcus faecalis, ATCC51299, read-out: MIC VREF
Procedure: (§1) Evaluation of vancomycin analogs is performed using in vitro susceptibility tests and a time-kill assay. [NCCL Standard, 1993] In susceptibility tests, five strains of bacteria, two of the most important: Staphylococcus aureus and Enterococcus faecalis (both susceptible and resistant strains), and Bacillus cereus are chosen and bacteria viability remaining in each well is evaluated using a colorimetric assay based on the tetrazolium salt 3-(4,5-dimethyl-2-thiazolyl)-2,5-diphenyl-2H tetrazolium bromide (MTT) and minimum inhibitory concentration (MIC) values are determined as μg/mL. [Mosmann, T. (1983); Damour, O., et al. (1992); Mikami, Y., et al. (1994)] This assay gives susceptibility information quickly, efficiently, and clearly.
(§2) All strains [Bacillus cereus (ATCC® 11778), Staphylococcus aureus (ATCC® 29213), Methicillin resistant Staphylococcus aureus (ATCC® 33591), Enterococcus faecalis (ATCC® 29212), and gentamicin, streptmycin, vancomycin resistant Enterococcus faecalis (ATCC® 51299), are purchased from REMEL (Lenexa, Kans.).
(§3) MICs are determined by the microdilution method using 96-well microplates. Samples are suspended with Cation Adjusted (20 to 25 mg of Ca^2+/mL and 10 to […] of Mg^2+) Mueller-Hinton broth (Difco Laboratories, Detroit, Mich.) and are two-fold diluted from 5 μg/mL to […] on microplates (12 step dilution). To each well, which contained 100 μL of cell suspension (10^6 CFU/mL), 100 μL of antibiotic solution is added and the plates are incubated at 37° C. for 24 h. 50 μL of MTT solution (1 mg/mL) is added to each well, then the plates are incubated under the same conditions (incubation time; 30 min for Bacillus cereus, Staphylococcus aureus, and Methicillin resistant Staphylococcus aureus; 2 hours for Enterococcus faecalis and Gentamicin, Streptmycin, Vancomycin Enterococcus faecalis). MTT is a yellow tetrazolium salt that is reduced by mitochondrial enzymes in viable cells to an insoluble blue formazan product. MIC values are evaluated by observing the lowest drug concentration to inhibit bacteria growth.

[2] = tested on: Bacillus cereus (ATCC 11778); assay: MIC susceptibility test, microdilution with MTT readout; conditions: Bacillus cereus, ATCC11778, read-out: MIC BC
Procedure: as §1, §2, §3

[3] = tested on: Staphylococcus aureus (ATCC 29213); assay: as above; conditions: Staphylococcus aureus ATCC29213; read-out: MIC SA
Procedure: as §1, §2, §3

[4] = tested on: Methicillin resistant Staphylococcus aureus (ATCC 33591); assay: as above; conditions: ATCC 3359 / ATCC 33591 / MRSA; Staphylococcus aureus ATCC3359, Methicillin resistance; read-out: MIC MRSA
Procedure: as §1, §2, §3

[5] = tested on: Enterococcus faecalis (ATCC 29212); assay: as above; conditions: Enterococcus faecalis ATCC29212; read-out: MIC EF
Procedure: as §1, §2, §3

[6] = tested on: Enterococcus faecium CL5137, VanA; assay: MIC susceptibility test; conditions: Enterococcus faecium CL5137, VanA; read-out: MIC CL5137
[7] = tested on: Enterococcus faecalis CL5244, VanB; assay: MIC susceptibility test; conditions: Enterococcus faecalis CL5244, VanB; read-out: MIC CL5244
Procedure: as §1, §3

For `CN[C@@H](CC(C)C)C(=O)N[C@H]1C(=O)N[C@@H](CC(N)=O)C(=O)N[C@H]2C(=O)NC3C(=O)N[C@H](C(=O)N[C@@H](C(=O)O)c4cc(O)cc(O)c4-c4cc3ccc4O)[C@H](O)c3ccc(c(Cl)c3)Oc3cc2cc(c3OC2OC(CN=[N+]=[N-])C(O)C(O)C2OC2CC(C)(NCc3ccc(-c4ccc(Cl)cc4)cc3)C(O)C(C)O2)Oc2ccc(cc2Cl)[C@H]1O` (stereo partly drawn) [LXXIV, N-4-(4-Chlorophenyl)benzylvancosamine-glucose-C6-azide Vancomycin], the MIC [1] was 0.16 µg/mL (≈ 0.0955 µM), the MIC [2] was 0.32 µg/mL (≈ 0.191 µM) and the MIC [3] was 1 µg/mL (≈ 0.597 µM). The MIC [4] was 0.48 µg/mL (≈ 0.287 µM), the MIC [5] was 0.16 µg/mL (≈ 0.0955 µM) and the MIC [6] was 13 µg/mL (≈ 7.76 µM). The MIC [7] was 0.3 µg/mL (≈ 0.179 µM).
Molecule `CCCCCCCCCCNC1(C)CC(OC2C(Oc3c4cc5cc3Oc3ccc(cc3Cl)[C@@H](O)[C@@H](NC(=O)[C@H](CC(C)C)NC)C(=O)N[C@@H](CC(N)=O)C(=O)N[C@H]5C(=O)NC3C(=O)N[C@H](C(=O)N[C@@H](C(=O)O)c5cc(O)cc(O)c5-c5cc3ccc5O)[C@H](O)c3ccc(c(Cl)c3)O4)OC(CSc3nnc(C)c(O)n3)C(O)C2O)OC(C)C1O` (stereo partly drawn) [LXXIX, N-Decylvancosamine-glucose-C6-2-thio-6-azathymine Vancomycin] has an MIC [1] of 0.63 µg/mL (≈ 0.367 µM), an MIC [2] of 0.63 µg/mL (≈ 0.367 µM) and an MIC [3] of 2.5 µg/mL (≈ 1.46 µM). For the same molecule, the MIC [4] was 1.3 µg/mL (≈ 0.758 µM), the MIC [5] was 0.32 µg/mL (≈ 0.187 µM) and the MIC [6] was 25 µg/mL (≈ 14.6 µM). The MIC [7] was 0.6 µg/mL (≈ 0.35 µM).
`CN[C@@H](CC(C)C)C(=O)N[C@H]1C(=O)N[C@@H](CC(N)=O)C(=O)N[C@H]2C(=O)NC3C(=O)N[C@H](C(=O)N[C@@H](C(=O)O)c4cc(O)cc(O)c4-c4cc3ccc4O)[C@H](O)c3ccc(c(Cl)c3)Oc3cc2cc(c3OC2OC(CN)C(O)C(O)C2OC2CC(C)(NCc3ccc(-c4ccc(Cl)cc4)cc3)C(O)C(C)O2)Oc2ccc(cc2Cl)[C@H]1O` (stereo partly drawn) [LXXV, N-4-(4-Chlorophenyl)benzylvancosamine-glucose-C6-amine Vancomycin] gave an MIC [1] of 0.63 µg/mL (≈ 0.382 µM), an MIC [2] of 0.16 µg/mL (≈ 0.097 µM) and an MIC [3] of no more than 0.03 µg/mL. It also gave an MIC [4] of no more than 0.03 µg/mL, an MIC [5] of no more than 0.03 µg/mL and an MIC [6] of 2 µg/mL (≈ 1.21 µM). For the same molecule, the MIC [7] was no more than 0.03 µg/mL.
`CN[C@@H](CC(C)C)C(=O)N[C@H]1C(=O)N[C@@H](CC(N)=O)C(=O)N[C@H]2C(=O)NC3C(=O)N[C@H](C(=O)N[C@@H](C(=O)O)c4cc(O)cc(O)c4-c4cc3ccc4O)[C@H](O)c3ccc(c(Cl)c3)Oc3cc2cc(c3OC2OC(CSc3nnc(N)s3)C(O)C(O)C2OC2CC(C)(N)C(O)C(C)O2)Oc2ccc(cc2Cl)[C@H]1O` (stereo partly drawn) [LXXVI, Glucose-C6-2-thio-5-amino-1,3,4-thiadiazole Vancomycin] gave an MIC [1] greater than 5 µg/mL, an MIC [2] of 0.63 µg/mL (≈ 0.403 µM) and an MIC [3] of 0.63 µg/mL (≈ 0.403 µM). The MIC [4] was 0.63 µg/mL (≈ 0.403 µM), the MIC [5] was 1.3 µg/mL (≈ 0.831 µM) and the MIC [6] was greater than 50 µg/mL. The MIC [7] was 19 µg/mL (≈ 12.1 µM).
Work on `CN[C@@H](CC(C)C)C(=O)N[C@H]1C(=O)N[C@@H](CC(N)=O)C(=O)N[C@H]2C(=O)NC3C(=O)N[C@H](C(=O)N[C@@H](C(=O)O)c4cc(O)cc(O)c4-c4cc3ccc4O)[C@H](O)c3ccc(c(Cl)c3)Oc3cc2cc(c3OC2OC(CSc3nnc(NN)n3N)C(O)C(O)C2OC2CC(C)(N)C(O)C(C)O2)Oc2ccc(cc2Cl)[C@H]1O` (stereo partly drawn) [LXXVII, Glucose-C6-5-thio-4-amino-3-hydrazino-1,2,4-triazole Vancomycin] yielded an MIC [1] of 1.3 µg/mL (≈ 0.824 µM), an MIC [2] of 0.63 µg/mL (≈ 0.399 µM) and an MIC [3] of 1.3 µg/mL (≈ 0.824 µM). It also gave an MIC [4] of 1.3 µg/mL (≈ 0.824 µM), an MIC [5] of 0.63 µg/mL (≈ 0.399 µM) and an MIC [6] of 63 µg/mL (≈ 39.9 µM). For the same molecule, the MIC [7] was 3.2 µg/mL (≈ 2.03 µM).
Work on `CN[C@@H](CC(C)C)C(=O)N[C@H]1C(=O)N[C@@H](CC(N)=O)C(=O)N[C@H]2C(=O)NC3C(=O)N[C@H](C(=O)N[C@@H](C(=O)O)c4cc(O)cc(O)c4-c4cc3ccc4O)[C@H](O)c3ccc(c(Cl)c3)Oc3cc2cc(c3OC2OC(CSc3nc(C)cc(O)n3)C(O)C(O)C2OC2CC(C)(N)C(O)C(C)O2)Oc2ccc(cc2Cl)[C@H]1O` (stereo partly drawn) [LXXVIII, Glucose-C6-2-thio-4-hydroxy-6-methylpyrimidine Vancomycin] yielded an MIC [1] of 2.5 µg/mL (≈ 1.59 µM), an MIC [2] of 0.63 µg/mL (≈ 0.4 µM) and an MIC [3] of 1 µg/mL (≈ 0.636 µM). The MIC [4] was 1.3 µg/mL (≈ 0.826 µM), the MIC [5] was 0.63 µg/mL (≈ 0.4 µM) and the MIC [6] was greater than 50 µg/mL. The MIC [7] was 6.3 µg/mL (≈ 4 µM).
